Experiments:
[1] = Dual-drug release from multi-length MNA into two-gel skin model; type: physicochemical; settings: 1% alginate, 16 h
Protocol: Evaluation of Dual-Drug Release Capability. For the dual release, MNAs with 4.2 mm long and 2 mm short needles were separately loaded with a 1% (m/v) alginate solution in DPBS containing ˜46 μg/mL of Rh-B, ˜1010 μg/mL of BSA-FITC, or no added analyte. Four combinations of analyte-loaded alginate MNAs were tested: (1) long needles loaded with Rh-B and short needles loaded with BSA-FITC (Rh-B/FITC), (2) long needles loaded with Rh-B and short needles blank (Rh-B/Blank), (3) long needles blank and short needles loaded with BSA-FITC (Blank/FITC), and (4) both lengths blank (Blank/Blank). The gels were crosslinked as previously mentioned and ran in quintuplicate. The needles were inserted into a two-gel skin model that include a 2 mm thick 3% (m/v) low-gelling agarose cast on top of a 3 mm thick 10% (m/v) porcine gelatin in 12 well plates. Both solutions were prepared in PBS. […] The collected gels were melted and the amount of Rh-B and BSA-FITC was quantified using a BioTek Cytation 5 plate reader at an excitation/emission of 546/568 and 495/520 nm, respectively.
An additional release experiment was conducted to evaluate the performance of the MNA at the dual-delivery of drugs. […] Following the release, the gel layers were separated, melted, and read in a plate reader for their Rh-B and BSA-FITC content. […] The measured release results are quantified in FIG. 5C, FIG. 5D, and FIG. 13. […]

[2] = tested on: Human umbilical vein endothelial cells (HUVECs); test: In vitro scratch assay on cultured HUVECs; type: cell-based
Protocol: In Vitro Scratch Assay. Human umbilical vein endothelial cells (HUVECs) (Sigma-Aldrich) were cultured in EGM™ Endothelial Cell Growth Medium BulletKit™ (Lonza) complete medium. At their fifth passage, the HUVECs were detached using trypsin-EDTA (0.1% w/v), resuspended in the growth medium, and seeded at a concentration of 50,000 cells per well into a 12-well tissue culture plate that was coated with a thin layer of Geltrex® hESC-Qualified, Ready-To-Use, Reduced Growth Factor Basement Membrane Matrix (Gibco®). The Geltrex® layer was formed by diluting by a factor of 2 in the basal endothelial medium and seeding in empty wells. […]
A scratch was created in the confluent HUVECs by lightly dragging a P200 pipette tip across the bottom of the well. […] The concentration of VEGF in the MNA+VEGF group was calculated so that if total VEGF release occurred, the concentration of VEGF in the well would match the concentration of the positive control (50 ng/mL). […] The area of scratch closure for each time point was calculated using ImageJ (NIH, Bethesda, Md.) and compared for relative area change to 0 h.
The ability of the platform to preserve the bioactivity of encapsulated therapeutics was assessed by loading vascular endothelial growth factor (VEGF), an important angiogenic factor. […] Three different groups were evaluated: MNA−VEGF, MNA+VEGF, and a positive control. […]

Molecule: CCN(CC)c1ccc2c(-c3ccccc3C(=O)O)c3ccc(=[N+](CC)CC)cc-3oc2c1.[Cl-] [Rh-B, Rhodamine B]
- Rh-B signal by gel layer ([1]; long needles (4.2 mm)): stronger in the gelatin

Molecule: vascular endothelial growth factor [VEGF]
- healing potential (gap closure) ([2]; after 8 h of culture, HUVEC scratch, n=4): cells nearly closed the gap in its entirety
- effect on HUVEC migration ([2]; scratch assay): positive effect

Molecule: BSA fluorescein isothiocyanate conjugate [BSA-FITC]
- BSA-FITC signal by gel layer ([1]; short needles (2 mm)): greater BSA-FITC signal in the top, agarose layer
